Key:
NAMPT = target: T1, NAMPT (Homo sapiens, UniProt P43490); assay: CycLex NAMPT Colorimetric Assay, NAMPT enzymatic activity; format: biochemical; conditions: three doses 0.1, 1, 10 uM
T1 construct: purchased MBL International (Woburn, Mass.)
Protocol: CycLex NAMPT Colorimetric Assay Kit was purchased from MBL International (Woburn, Mass.) and utilized to screen the effect of putative NAMPT inhibitors on NAMPT enzymatic activity. Three doses (0.1, 1, 10 uM) of each NAMPT inhibitors was used following the manufacturer's instruction.

MCT-induced PH in rats = assay: MCT-PH model, FK-866 analogs as preventive therapy; format: in vivo; conditions: for hypertrophy-ratio of RV and LV plus septal-S weight (RVH-RV) / right ventricular systolic pressure (RVSP): preliminary studies in MCT-PH
Protocol: FIG. 10A is a bar graph showing normalized NAMPT activity in the present of FK866 and FK analogues MS-1-82, Rari049, Alp-135 at 0.1, 1, and 10 μM concentrations. FIG. 10B is a bar graph showing RVSP in MCT-induced PH in rats and in MCT-induced PH in rats with Rari049 (2.5 mg/kg, i.p. BID, ×2 wks) (RVSP-right ventricular systolic pressure, RVH-RV hypertrophy-ratio of RV and LV plus septal-S weight).

[1] = tested on: Human pulmonary artery endothelial cells (EC); assay: TNF-α-induced apoptosis / PARP-1 cleavage in human lung endothelial cells; format: cell-based
Protocol: Human pulmonary artery endothelial cells (EC) were obtained from Lonza (Walkersville Md.) and were cultured in the manufacturer's recommended endothelial growth medium-2 (EGM-2). Cells were grown at 37° C. in a 5% CO2 incubator, and passages 6 to 9 were used for experiments. Media was changed one day before experimentation. For RNA interference, siRNAs were transfected into EC at a final concentration of 100 nM for 72 hrs. Protein quantification and Western blot analysis were performed according to standard procedures.
(B) ECs were pre-treated (6 hrs) with either vehicle (DMSO) or with a caspase-3 inhibitor (z-DEVD-fmk, 20 μM) prior to 24 hr challenge with TNF-α (30 ng/ml), FasL (100 ng/ml) or tBHP (5 mM). […] (C) ECs were transfected with myc-tagged NAMPT plasmid resulting in marked NAMPT overexpression. […] Error bars indicate SEM of three independent experiments.

hPASMCs = assay: TUNEL apoptosis assay in hPASMCs; format: cell-based, human; conditions: FK866 10 μM, 24 hrs
Protocol: hPASMCs were cultured on a coverslip in a 6-well cell culture plate. H2O2 (100 μM, Sigma, Cat. #ab66110) was used as an apoptosis stimulus for hPASMCs.
When cell confluence reached 95%, cells were starved for 3 hrs and stimulated by H2O2, FK866 (10 μM), H2O2+rhNAMPT (20 μg/ml) or H2O2+rhNAMPT (20 μg/ml) with FK866 (10 μM) for 24 hrs. Cell apoptosis was examined using an in situ BrdU-Red DNA fragmentation (TUNEL) kit. The cells on the coverslips were examined using a Nikon Eclipse E800 fluorescence microscope, and the images were processed by MetaMorph software (Molecular Devices, Inc.). Approximately ten images were taken from each condition, and over 500 cells were counted according to DAPI staining.

[2] = MCT-PH, 2.5 mg/kg, i.p. BID, ×2 wks

T1 sequence (P43490 whole entry): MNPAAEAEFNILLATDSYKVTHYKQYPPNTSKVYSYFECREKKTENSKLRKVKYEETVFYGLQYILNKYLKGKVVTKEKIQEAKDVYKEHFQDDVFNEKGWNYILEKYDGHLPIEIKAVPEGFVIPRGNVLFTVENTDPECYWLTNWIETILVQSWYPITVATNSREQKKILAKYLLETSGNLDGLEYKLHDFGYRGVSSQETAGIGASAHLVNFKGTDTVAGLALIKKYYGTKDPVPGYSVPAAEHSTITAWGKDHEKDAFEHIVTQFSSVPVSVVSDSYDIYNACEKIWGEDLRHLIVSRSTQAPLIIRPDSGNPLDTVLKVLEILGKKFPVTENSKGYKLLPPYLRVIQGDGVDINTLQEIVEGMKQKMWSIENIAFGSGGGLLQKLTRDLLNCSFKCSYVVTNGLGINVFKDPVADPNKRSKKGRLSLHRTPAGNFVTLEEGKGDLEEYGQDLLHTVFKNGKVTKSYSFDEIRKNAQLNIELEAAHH

Compound	NAMPT enzyme inhibitory properties (NAMPT)	hypertrophy-ratio of RV and LV plus septal-S weight (RVH-RV) (MCT-induced PH in rats)	right ventricular systolic pressure (RVSP) (MCT-induced PH in rats)	other results
O=C(/C=C/c1cccnc1)NCCCCCCn1c2ccccc2c2ccccc21 [Alp135]	excellent dose-dependent enzyme inhibitory properties	reducing	reducing	
z-DEVD-fmk				PARP-1 cleavage induced by TNF-α ([1]; pre-incubated 6 hrs, 20 μM, TNF-α 30 ng/ml 24 hrs, vs vehicle (DMSO)): significantly reduced
O=C(/C=C/c1cccnc1)NCCCCCCn1c(-c2ccccc2)cc2ccccc21 [Rari049]	excellent dose-dependent enzyme inhibitory properties	reducing	reducing	RVH (MCT-induced PH in rats; [2]): reducing; RVSP (MCT-induced PH in rats; [2]): reducing
O=C(/C=C/c1cccnc1)NCCCCCCNC(=O)c1cccnc1 [MS-1-82]	excellent dose-dependent enzyme inhibitory properties			
O=C(/C=C/c1cccnc1)NCCCCC1CCN(C(=O)c2ccccc2)CC1 [FK866, (E)-N-[4-(1-Benzoylpiperidin-4-yl)butyl]-3-pyridin-3-ylprop-2-enamide, reference compound]				TNFα-induced EC apoptosis ([1]; human lung EC): failed to alter; hPASMC apoptosis (TUNEL positive cells) (hPASMCs): promotes

Source: patent US10975167B2, “Method to reduce pulmonary arterial hypertension by administering inhibitors of nicotinamide phosphoribotransferase” (Arizona Board of Regents on Behalf of the University of …, priority 2017, dated 2021)
